Experimental data as given in US20100227853A1, “INHIBITORS OF CYCLIC AMP PHOSPHODIESTERASES” (Trustees of Boston College, priority 2008, published 2010).

Experiments:
PDE7A = PDE7A (Homo sapiens, UniProt Q13946); test: 5FOA growth assay in fission yeast strain expressing PDE7A; type: cell-based; set-up: targets used in the assays are full-length proteins (as opposed to simply the catalytic domain); expressed in transfected cells; host or cells: Schizosaccharomyces pombe, PDE gene integrated in place of cgs2; conditions: for Composite Z score, PDE7A: high throughput 5FOA growth screen
Method in brief: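 Fission yeast carrying an fbp1-ura4 reporter were pregrown to exponential phase at 30 °C in EMM with 0–2.5 mM cAMP (or 0.5/1.0 mM cGMP), then moved into 5FOA medium with 100 nl pinned compound (10 mM stocks). Growth was read as OD600 after 48 h at 30 °C and scored as composite Z scores.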

PDE4B3 = target: T1, PDE4B3 (Mus musculus, UniProt Q8VBU5); test: 5FOA growth assay in fission yeast strain expressing PDE4B3; type: cell-based, Murine; conditions: for Composite Z score, PDE4B3: high throughput 5FOA growth screen
T1 construct: targets used in the assays are full-length proteins (as opposed to simply the catalytic domain); expressed in transfected cells; host or cells: Schizosaccharomyces pombe, PDE gene integrated in place of cgs2
T1 sequence (Q8VBU5 1-721): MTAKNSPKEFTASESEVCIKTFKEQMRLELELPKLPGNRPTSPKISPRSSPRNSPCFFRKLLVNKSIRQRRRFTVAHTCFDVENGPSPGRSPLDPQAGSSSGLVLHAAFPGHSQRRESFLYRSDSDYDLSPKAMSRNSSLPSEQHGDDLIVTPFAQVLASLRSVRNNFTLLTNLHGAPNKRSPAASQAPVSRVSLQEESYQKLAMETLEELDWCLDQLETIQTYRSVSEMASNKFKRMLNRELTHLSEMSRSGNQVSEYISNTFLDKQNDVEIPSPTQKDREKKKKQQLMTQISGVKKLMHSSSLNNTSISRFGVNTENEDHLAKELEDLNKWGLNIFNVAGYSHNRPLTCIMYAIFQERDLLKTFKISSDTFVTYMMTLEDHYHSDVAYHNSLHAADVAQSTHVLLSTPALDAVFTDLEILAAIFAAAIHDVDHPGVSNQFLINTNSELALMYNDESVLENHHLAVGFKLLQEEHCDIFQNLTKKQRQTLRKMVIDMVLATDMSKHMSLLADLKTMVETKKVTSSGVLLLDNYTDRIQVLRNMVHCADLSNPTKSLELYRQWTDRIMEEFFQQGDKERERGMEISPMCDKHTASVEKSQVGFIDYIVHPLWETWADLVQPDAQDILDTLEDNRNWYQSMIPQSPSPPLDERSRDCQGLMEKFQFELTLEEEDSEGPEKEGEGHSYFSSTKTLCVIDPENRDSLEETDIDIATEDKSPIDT
Method in brief: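 Fission yeast strains carrying mouse PDE4A1 or PDE4B3 and an fbp1-ura4 reporter were pregrown in EMM with 0.5–2.5 mM cAMP, then seeded at 0.5–4×10^5 cells/ml in 5FOA medium with compound. Growth was read as OD600 after 48 h at 30° C; composite Z scores were derived.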

PDE7A, sequence (Q13946 whole entry, the tested form may be a part): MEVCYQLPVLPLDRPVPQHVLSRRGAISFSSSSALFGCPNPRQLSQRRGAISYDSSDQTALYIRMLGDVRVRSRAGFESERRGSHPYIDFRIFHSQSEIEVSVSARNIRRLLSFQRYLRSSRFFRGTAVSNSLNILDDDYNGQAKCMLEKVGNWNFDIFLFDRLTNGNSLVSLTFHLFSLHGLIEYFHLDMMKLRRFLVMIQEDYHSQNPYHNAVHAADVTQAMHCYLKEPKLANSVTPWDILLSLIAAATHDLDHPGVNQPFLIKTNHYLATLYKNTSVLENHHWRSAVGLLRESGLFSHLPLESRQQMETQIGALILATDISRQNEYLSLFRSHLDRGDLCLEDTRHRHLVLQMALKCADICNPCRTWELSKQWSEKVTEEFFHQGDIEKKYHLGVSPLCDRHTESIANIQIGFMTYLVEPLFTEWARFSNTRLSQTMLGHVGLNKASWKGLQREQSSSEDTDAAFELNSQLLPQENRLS

SMILES | Composite Z score, PDE7A (PDE7A) | Composite Z score, PDE4B3 (PDE4B3) | 2 Assay (2 uM), 7A (PDE7A) | 1 Assay (20 uM) 7A (PDE7A) | 2 Assay (2 uM), 4B3 (PDE4B3) | 1 Assay (20 uM) 4B3 (PDE4B3)
Cc1nc(N2CCCCC2)c2c(C)c(C(=O)Nc3cccc(C(F)(F)F)c3)sc2n1 [Compound 2040F10] | −1.481 | 16.5 |  |  |  | 
COc1cccc(NC(=O)c2sc3ncnc(N4CCc5ccccc5C4)c3c2C)c1 [Compound 2041K21] | 0.4852 | 4.5126 |  |  |  | 
CCOC(=O)c1sc2nc(C)nc(N3CCC(C)CC3)c2c1C [Compound 2007D06] | −0.759 | 0.2826 |  |  |  | 
CCNc1nc(SCc2ccc(Cl)cc2)nc2sc3c(c12)CCN(C)C3 [Compound 2054P05] | 1.181 | −0.211 |  |  |  | 
COC(=O)C1=C(C)N(c2ccccc2Cl)C(=O)/C1=C\c1cccs1 [Compound 27] |  |  | 5.07 | 2.34 | 22.05 | −0.26
COC(=O)C1=C(C)N(C2CCCCC2)C(=O)/C1=C\c1cccs1 [Compound 22] |  |  | 57.22 | 132.82 | 37.54 | 70.26
O=C(O)CCNc1ncnc2sc3c(c12)CCCC3 [Compound 2012O16] | 1.8846 | −0.716 |  |  |  | 
